# Measured values: patent US8314088B2, “Pyrazinooxazepine derivatives” (Takeda Pharmaceutical Company Limited, priority 2009, dated 2012)
# Tests used:
# [1] = target: serotonin 5-HT2C receptor (Homo sapiens, UniProt P28335, I156V/I160V/N158S); assay type: cell-based
# SD female rats = assay: stress urinary incontinence: leak point pressure before and after administration (Experimental Example 5a); assay type: in vivo, rat; conditions: i.v., spinal cord-transected SD female rats
# Experimental: The effect of the compound of the present invention for stress urinary incontinence was measured by comparing the leak point pressure before and after the administration of the compound as shown below. SD female rats (body weight 200-270 g) were anesthetized with urethane (Wako Pure Chemical Industries, Ltd.), and the spinal cord was cut at T8-9 level to eliminate the micturition reflex. During the operation, isoflurane anesthesia was added as necessary. The rats were fixed at a dorsal position, and two catheters (PE-100; Clay Adams) were indwelled in the bladder. One of the catheters was filled with saline stained with Evans Blue dye (Merck), and connected to a 50 ml syringe (TERUMO CORPORATION) fixed on an infusion pump (KD Scientific) via a three-way cock. The other catheter was connected to a pressure transducer (DX-100; NIHON KOHDEN CORPORATION), and signals of the transducer were transmitted to computer via an amplifier (blood pressure amplification unit AP-641G; NIHON KOHDEN CORPORATION) and a data analyzer (BIOPAC; MP100), and recorded on a hard disk. The data was analyzed on the computer using a software (BIOPAC; AcqKnowledge). A DMA/PEG400 (1:1) solution was intravenously administered to the rats at 0.5 mL/kg. From 10 min later, saline was injected into the bladder using the infusion pump at a rate of 360 ml/hr, infusion was stopped on the moment fluid leakage from the urethral meatus was observed, and the solution in the bladder was discharged by opening the three-way cock. The maximum intravesical pressure during infusion was taken as a leak point pressure, which was measured repeatedly until the value was stabilized, and the average value of the last three measures was taken as the data. […] Williams test was used for statistical calculation.
# Male F344 rats = assay: obesity: food consumption after single gavage dose (Experimental Example 6a); assay type: in vivo, rat; conditions: 0.5 mg/mL in 0.5% methylcellulose, 2 mL/kg by gavage; 24 hr after administration; obese F344 rats on high-fat diet
# Experimental: Experimental Example 6a The effect of the compound of the present invention for obesity was measured using the food consumption calculated as follows as an index. Male F344 rats (CLEA Japan, Inc.) were purchased at 5 weeks of age, and raised by groups on a solid high-fat diet with fat content 45 kcal % (D12451, Research Diets). When sufficient obesity was observed (40 to 60-week-old), they were raised singly, and given a powder high-fat diet with lipid content 45 kcal % […], Research Diets) in a feeder. The rats were grouped using body weight and food consumption (18:00-8:00) one day before administration as indices. […] A 0.5% methylcellulose solution was administered to the control group. After administration, a previously-weighed feeder was placed in the breeding cage. The feeder was weighed 24 hr after the administration and the food consumption was calculated.
# [2] = tested on: female spinal cord-transected rats with bilaterally transected hypogastric nerve and pudendal nerve; assay: organ prolapse: urethral closure response induced by increased intravesical pressure (Experimental Example 7a); assay type: in vivo, rat; set-up: unit not given here; conditions: 1 mg/kg, i.v.; evaluated 10 min after administration
# Experimental: The effect of the compound of the present invention for organ prolapse was measured by examining the enhancement of urethral closure response by pelvic floor muscles (iliococcygeal muscle, pubococcygeal muscle etc.) induced by an increased intravesical pressure, by compound administration. The enhancing action of the compound on urethral closure response induced by an increased intravesical pressure was measured using female spinal cord-transected rats with bilaterally transected hypogastric nerve and pudendal nerve. SD female rats (body weight 246-298 g) were anesthetized with urethane, and the spinal cord was cut at T8-9 level to eliminate the micturition reflex. During the operation, isoflurane anesthesia was added as necessary. After abdominal section, bladder neck was ligated with a suture thread, and then the hypogastric nerve and pudendal nerve were bilaterally transected. […] The changes in the topical pressure within the urethra (hereinafter conveniently indicated as urethral pressure) as measured by the microtip transducer was transmitted to a computer via an amplifier and a data intake device, and recorded on a hard disc. […] The reaction of the urethra induced by an increased intravesical pressure was measured repeatedly until the value is stabilized, and the average of the last 2 measures was taken as the value before drug administration. […]
# [3] = tested on: male F344 rats (DIO-F344 rat); assay: obesity: body weight and food consumption in high-fat diet-loaded rats, osmotic pump (Experimental Example 6b); assay type: in vivo; conditions: subcutaneous osmotic pump; for body weight loss (%): 14 days
# Experimental: The effect of the compound of the present invention for obesity was measured using high-fat diet-loaded rats based on the effects on body weight and food consumption. 38 to 60-week-old male F344 rats (DIO-F344 rat) raised on a […] fat high-fat diet (D12451, Research Diets) from 7 weeks of age were used. They were grouped based on the body weight one day before operation. The compound of Example 8 was dissolved in saline, filled in an osmotic pump (Alzet osmotic pump 2mL2 type), and subcutaneously implanted under isoflurane anesthesia. The body weight was measured on completion of the operation, and measured again at 14 days postoperation. In addition, the amount of remaining food was measured, and food consumption for 14 days was measured. For statistical calculation, Williams test was used.
# Sequence of serotonin 5-HT2C receptor (P28335 33-458 I156V/N158S/I160V limits assumed): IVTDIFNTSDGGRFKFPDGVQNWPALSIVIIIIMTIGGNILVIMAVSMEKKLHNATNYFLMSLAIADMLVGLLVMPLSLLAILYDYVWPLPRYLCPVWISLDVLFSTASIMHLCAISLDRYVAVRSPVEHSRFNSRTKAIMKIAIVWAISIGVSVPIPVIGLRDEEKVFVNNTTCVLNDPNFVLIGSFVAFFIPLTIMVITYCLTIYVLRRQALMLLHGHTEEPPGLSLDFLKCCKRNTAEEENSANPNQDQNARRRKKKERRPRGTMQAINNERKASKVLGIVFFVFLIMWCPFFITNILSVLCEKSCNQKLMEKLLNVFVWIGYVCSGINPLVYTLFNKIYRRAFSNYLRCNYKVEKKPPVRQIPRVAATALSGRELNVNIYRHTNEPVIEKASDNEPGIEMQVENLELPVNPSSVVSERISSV
structure (smiles),measurement,setting,value
"CC(C)Oc1cnc2c(n1)OCCNC2.Cl [Example 2, 3-(1-methylethoxy)-6,7,8,9-tetrahydropyrazino[2,3-f][1,4]oxazepine hydrochloride]",ratio (%) relative to maximum response by 5-HT (1 μM),[1],93%
"C[C@@H]1COCCN1c1cnc2c(n1)OCCNC2.Cl [Example 5, 3-[(3R)-3-methylmorpholin-4-yl]-6,7,8,9-tetrahydropyrazino[2,3-f][1,4]oxazepine hydrochloride]",Change in leak point pressure (cmH2O),SD female rats; 0.03 mg/kg,5.2 ± 1.7 cmH2O
same,Change in leak point pressure (cmH2O),SD female rats; 0.1 mg/kg,9.1 ± 1.3 cmH2O
same,Change in leak point pressure (cmH2O),SD female rats; 0.3 mg/kg,13.6 ± 2.4 cmH2O
same,Change in leak point pressure (cmH2O),SD female rats; 1 mg/kg,19.6 ± 1.9 cmH2O
same,suppression of food consumption as compared to the control group,Male F344 rats,21.8%
same,urethral closure respons (ratio relative to value before administration),[2],227 ± 32
same,ratio (%) relative to maximum response by 5-HT (1 μM),[1],95%
"C[C@H]1CNCc2ncc(N3CCOCC3)nc2O1 [Example 6, (6S)-6-methyl-3-(morpholin-4-yl)-6,7,8,9-tetrahydropyrazino[2,3-f][1,4]oxazepine]",ratio (%) relative to maximum response by 5-HT (1 μM),[1],102%
"C[C@@H]1COCCN1c1cnc2c(n1)O[C@@H](C)CNC2.Cl [Example 7, (6S)-6-methyl-3-[(3R)-3-methylmorpholin-4-yl]-6,7,8,9-tetrahydropyrazino[2,3-f][1,4]oxazepine hydrochloride]",ratio (%) relative to maximum response by 5-HT (1 μM),[1],108%
"CC(C)N(C)c1cnc2c(n1)OCCNC2.Cl [Example 8, N-methyl-N-(1-methylethyl)-6,7,8,9-tetrahydropyrazino[2,3-f][1,4]oxazepin-3-amine hydrochloride]",Change in leak point pressure (cmH2O),SD female rats; 0.1 mg/kg,5.4 ± 1.6 cmH2O
same,Change in leak point pressure (cmH2O),SD female rats; 0.3 mg/kg,10.8 ± 3.3 cmH2O
same,Change in leak point pressure (cmH2O),SD female rats; 1 mg/kg,17.3 ± 3.4 cmH2O
same,Change in leak point pressure (cmH2O),SD female rats; 3 mg/kg,23.6 ± 3.3 cmH2O
same,urethral closure respons (ratio relative to value before administration),[2],192 ± 13
same,food consumption/14 days,[3]; 3 mg/kg/day,150 ± 7 g
same,body weight loss (%),[3]; 3 mg/kg/day,4.8 ± 0.5%
same,food consumption/14 days,[3]; 10 mg/kg/day,140 ± 6 g
same,body weight loss (%),[3]; 10 mg/kg/day,4.9 ± 0.3%
same,food consumption/14 days,[3]; 30 mg/kg/day,110 ± 2 g
same,body weight loss (%),[3]; 30 mg/kg/day,7.5 ± 0.3 %
same,ratio (%) relative to maximum response by 5-HT (1 μM),[1],95%
"CC[C@@H]1COCCN1c1cnc2c(n1)OCCNC2.Cl [Example 9, 3-[(3R)-3-ethylmorpholin-4-yl]-6,7,8,9-tetrahydropyrazino[2,3-f][1,4]oxazepine hydrochloride]",ratio (%) relative to maximum response by 5-HT (1 μM),[1],103%
"Cl.c1nc2c(nc1C1CC1)OCCNC2 [Example 10, 3-cyclopropyl-6,7,8,9-tetrahydropyrazino[2,3-f][1,4]oxazepine hydrochloride]",ratio (%) relative to maximum response by 5-HT (1 μM),[1],89%
